Patent US10870647B2, “Imidazopyridine derivative, method for preparing same, and pharmaceutical composition containing same as active ingredient for preventing or treating cancer” (DAEGU-GYEONGBUK MEDICAL INNOVATION FOUNDATION, priority 2016, dated 2020)
Read-outs that look alike come from different tables or passages of the source.

Experiments:
Experiment in all cases: Kinase selectivity, scanMAX Kinase assay panel (DiscoverX), % control at 1 uM
Format in all cases: binding
[1] = target: T1, scanMAX Kinase assay panel (Homo sapiens, UniProt P10721, V559D/V654A); settings: KIT (V559D, V654A); 1 uM; read-out: Percent Control (%)
T1 construct: purchased DiscoverX
How it was run: (§1)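 Read-out is percent of control, derived from the signal with compound relative to positive and negative controls: (compound − positive)/(negative − positive) × 100. Each enzyme received test drug at 1 uM in DMSO, and values under 35% count as active.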

[2] = target: T2, scanMAX Kinase assay panel (Homo sapiens, UniProt O14757); settings: CHEK1; 1 uM; read-out: Percent Control (%)
T2 construct: purchased DiscoverX
T2 sequence (O14757 1-476): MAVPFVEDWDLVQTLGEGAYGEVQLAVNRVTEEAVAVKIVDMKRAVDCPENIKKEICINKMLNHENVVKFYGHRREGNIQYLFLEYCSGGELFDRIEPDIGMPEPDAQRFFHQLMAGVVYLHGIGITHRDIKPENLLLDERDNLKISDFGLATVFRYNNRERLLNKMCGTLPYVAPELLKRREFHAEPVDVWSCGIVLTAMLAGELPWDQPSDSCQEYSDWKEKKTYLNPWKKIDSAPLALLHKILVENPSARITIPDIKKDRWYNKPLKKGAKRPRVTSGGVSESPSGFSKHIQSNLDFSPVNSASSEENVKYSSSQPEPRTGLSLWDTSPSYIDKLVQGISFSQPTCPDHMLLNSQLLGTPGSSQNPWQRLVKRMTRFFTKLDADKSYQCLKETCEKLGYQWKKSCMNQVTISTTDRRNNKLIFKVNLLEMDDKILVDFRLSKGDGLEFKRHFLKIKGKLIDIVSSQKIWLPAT
How it was run: as §1

[3] = target: T3, scanMAX Kinase assay panel (Homo sapiens, UniProt P48729); settings: CSNK1A1; 1 uM; read-out: Percent Control (%)
T3 construct: purchased DiscoverX
How it was run: as §1

[4] = target: T4, scanMAX Kinase assay panel (Homo sapiens, UniProt Q15831); settings: LKB1; 1 uM; read-out: Percent Control (%)
T4 construct: purchased DiscoverX
T4 sequence (Q15831 1-433): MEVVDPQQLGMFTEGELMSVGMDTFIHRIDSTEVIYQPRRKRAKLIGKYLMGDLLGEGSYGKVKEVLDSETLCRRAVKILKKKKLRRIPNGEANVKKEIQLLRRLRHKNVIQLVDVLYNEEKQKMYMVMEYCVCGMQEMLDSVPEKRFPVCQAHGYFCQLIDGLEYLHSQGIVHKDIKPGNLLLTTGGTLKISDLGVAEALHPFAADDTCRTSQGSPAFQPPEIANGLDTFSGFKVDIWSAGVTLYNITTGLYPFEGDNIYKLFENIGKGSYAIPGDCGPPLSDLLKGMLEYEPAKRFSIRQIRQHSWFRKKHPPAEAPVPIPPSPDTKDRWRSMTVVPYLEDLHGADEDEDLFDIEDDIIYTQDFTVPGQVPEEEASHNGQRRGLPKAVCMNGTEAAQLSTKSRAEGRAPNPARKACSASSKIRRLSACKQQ
How it was run: as §1

[5] = target: T5, scanMAX Kinase assay panel (Homo sapiens, UniProt Q9NRM7); settings: LATS2; 1 uM; read-out: Percent Control (%)
T5 construct: purchased DiscoverX
T5 sequence (Q9NRM7 1-1088): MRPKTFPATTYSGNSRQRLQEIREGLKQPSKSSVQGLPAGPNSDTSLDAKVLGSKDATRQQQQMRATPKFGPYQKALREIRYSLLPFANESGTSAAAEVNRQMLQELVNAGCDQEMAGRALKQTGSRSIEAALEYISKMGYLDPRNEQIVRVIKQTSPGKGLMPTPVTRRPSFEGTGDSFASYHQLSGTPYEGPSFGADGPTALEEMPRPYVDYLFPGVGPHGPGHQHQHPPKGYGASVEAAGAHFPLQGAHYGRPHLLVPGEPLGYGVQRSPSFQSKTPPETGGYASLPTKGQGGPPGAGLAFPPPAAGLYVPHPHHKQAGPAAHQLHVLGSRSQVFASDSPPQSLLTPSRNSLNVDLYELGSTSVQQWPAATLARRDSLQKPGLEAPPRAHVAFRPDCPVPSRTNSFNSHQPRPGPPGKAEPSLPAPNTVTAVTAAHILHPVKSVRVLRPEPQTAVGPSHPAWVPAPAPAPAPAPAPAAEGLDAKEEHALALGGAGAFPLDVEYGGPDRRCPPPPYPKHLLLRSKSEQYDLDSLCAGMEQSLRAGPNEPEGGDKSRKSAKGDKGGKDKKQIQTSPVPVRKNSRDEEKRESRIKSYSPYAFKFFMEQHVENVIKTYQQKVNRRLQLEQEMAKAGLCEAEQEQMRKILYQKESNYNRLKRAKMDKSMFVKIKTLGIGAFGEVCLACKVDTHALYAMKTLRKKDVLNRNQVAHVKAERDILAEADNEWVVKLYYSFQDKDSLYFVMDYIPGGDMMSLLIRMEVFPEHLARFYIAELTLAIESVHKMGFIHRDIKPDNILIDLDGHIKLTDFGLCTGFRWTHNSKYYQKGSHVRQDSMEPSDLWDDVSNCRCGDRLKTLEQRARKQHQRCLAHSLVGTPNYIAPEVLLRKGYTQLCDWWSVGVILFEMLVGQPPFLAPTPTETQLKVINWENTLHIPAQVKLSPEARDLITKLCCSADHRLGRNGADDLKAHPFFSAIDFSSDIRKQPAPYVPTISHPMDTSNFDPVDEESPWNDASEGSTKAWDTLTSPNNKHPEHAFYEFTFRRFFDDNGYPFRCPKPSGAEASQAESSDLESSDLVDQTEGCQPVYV
How it was run: as §1

[6] = target: T6, scanMAX Kinase assay panel (Homo sapiens, UniProt P10721); settings: 1 uM, read-out: Percent Control (%)
T6 construct: purchased DiscoverX
How it was run: as §1

T3 sequence (P48729 whole entry): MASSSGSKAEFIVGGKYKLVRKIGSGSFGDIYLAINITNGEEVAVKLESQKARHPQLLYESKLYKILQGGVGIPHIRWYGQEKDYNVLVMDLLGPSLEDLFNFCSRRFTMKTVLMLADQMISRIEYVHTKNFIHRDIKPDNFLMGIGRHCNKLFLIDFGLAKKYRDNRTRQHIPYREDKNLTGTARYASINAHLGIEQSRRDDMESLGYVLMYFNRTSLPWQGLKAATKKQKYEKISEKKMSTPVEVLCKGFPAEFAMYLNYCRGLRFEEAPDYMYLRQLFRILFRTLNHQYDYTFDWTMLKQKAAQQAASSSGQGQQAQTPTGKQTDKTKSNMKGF
T1 sequence (P10721 26-976 V559D/V654A): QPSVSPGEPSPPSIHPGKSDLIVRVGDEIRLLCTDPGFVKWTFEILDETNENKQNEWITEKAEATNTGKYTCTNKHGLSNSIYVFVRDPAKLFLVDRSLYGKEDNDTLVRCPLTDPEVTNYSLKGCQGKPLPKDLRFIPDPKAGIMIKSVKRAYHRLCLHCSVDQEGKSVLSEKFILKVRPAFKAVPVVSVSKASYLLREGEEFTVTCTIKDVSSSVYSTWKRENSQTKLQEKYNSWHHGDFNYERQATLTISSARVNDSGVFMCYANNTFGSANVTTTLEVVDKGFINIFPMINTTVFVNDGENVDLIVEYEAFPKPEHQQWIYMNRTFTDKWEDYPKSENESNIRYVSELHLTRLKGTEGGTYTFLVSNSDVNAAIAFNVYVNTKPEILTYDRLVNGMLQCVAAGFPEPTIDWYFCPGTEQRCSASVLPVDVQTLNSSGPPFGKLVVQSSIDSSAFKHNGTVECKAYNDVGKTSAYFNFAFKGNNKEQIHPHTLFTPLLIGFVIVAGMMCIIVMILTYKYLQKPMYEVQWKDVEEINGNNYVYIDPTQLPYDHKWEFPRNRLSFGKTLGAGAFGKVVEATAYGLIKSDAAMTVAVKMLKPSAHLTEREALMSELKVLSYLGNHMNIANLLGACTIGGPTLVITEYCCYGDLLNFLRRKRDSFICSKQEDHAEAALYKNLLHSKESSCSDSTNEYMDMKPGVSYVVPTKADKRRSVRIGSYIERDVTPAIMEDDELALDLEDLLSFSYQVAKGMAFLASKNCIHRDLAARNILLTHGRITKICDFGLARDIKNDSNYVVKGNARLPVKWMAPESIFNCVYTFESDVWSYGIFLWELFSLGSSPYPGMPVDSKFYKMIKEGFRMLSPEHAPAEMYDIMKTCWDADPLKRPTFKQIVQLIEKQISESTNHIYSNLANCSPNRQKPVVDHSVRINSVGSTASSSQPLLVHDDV
T6 sequence (P10721 26-976): as the sequence (P10721 26-976 V559D/V654A) above, with D534V, A629V counted along it

SMILES | remaining binding at 1 µM [1] | remaining binding at 1 µM [2] | remaining binding at 1 µM [3] | remaining binding at 1 µM [4] | remaining binding at 1 µM [5] | remaining binding at 1 µM ([6]; KIT-autoinhibited) | remaining binding at 1 µM ([6]; KIT)
Cc1ccc(C(=O)Nc2ccc(CN3CCN(C)CC3)c(C(F)(F)F)c2)cc1C#Cc1cnc2c(Nc3cnn(C)c3)cccn12 [Example 1, 4-methyl-3-((8-((1-methyl-1H-pyrazol-4-yl)amino)imidazo[1,2-a]pyridin-3-yl)ethynyl)-N-(4-((4-methylpiperazin-1-yl)methyl)-3-(trifluoromethyl)phenyl)benzamide] | 1% | 90% | 67% | 98% | 67% | 77% | 0%
Cc1cn(-c2cc(NC(=O)c3ccc(C)c(C#Cc4cnc5c(Nc6cnn(C)c6)cccn45)c3)cc(C(F)(F)F)c2)cn1 [Example 12, 4-methyl-N-(3-(4-methyl-1H-imidazol-1-yl)-5-(trifluoromethyl)phenyl)-3-((8-((1-methyl-1H-pyrazol-4-yl)amino)imidazo[1,2-a]pyridin-3-yl)ethynyl)benzamide] | 11% | 100% | 76% | 85% | 98% | 98% | 1%
Cc1ccc(NC(=O)C2(C(=O)Nc3ccc(F)cc3)CC2)cc1C#Cc1cnc2c(Nc3cnn(C(C)C)c3)cccn12 [Example 78] | 10% | 98% | 85% | 100% | 100% | 93% | 0%
